Laboratory results published in patent US10071985B2, “Therapeutic compounds” (Gilead Sciences, Inc., priority 2016, dated 2018).
Read-outs that look alike come from different tables or passages of the source.

Tests used:
[1] = Test C: Pharmacokinetic analysis following intravenous administration to cynomolgus monkeys; assay type: in vivo, cynomolgus (cyno) monkey; settings: male, cynomolgus monkey, 1 mg/kg; for AUC(0-inf): t = 0 to infinity, read-out: Cyno AUCinf; for Cmax: maximum plasma concentration, read-out: Cyno Cmax
Procedure: (§1) Test C. Pharmacokinetic Analysis Following Intravenous Administration to Sprague-Dawley Rats and Beagle Dogs and Cynomologous Monkeys
All IV formulations were in solution.
Each cynomolgus (cyno) monkey IV dosing group consisted of 3 male, naïve cyno monkeys At dosing, the animals weighed ˜3.2-4 kg. The animals were fasted overnight prior to dose administration and up to 2 hr after dosing.
(§2) For the IV infusion group, the test compound was administered by intravenous infusion over 30 minutes. The rate of infusion was adjusted according to the body weight of each animal to deliver a dose of 1 mg/kg at 2 mL/kg.
(§3) Serial venous blood samples (approximately 0.4 mL each for rat and 1.0 mL for dog) were taken at specified time points after dosing from each animal. The blood samples were collected into Vacutainer™ tubes (Becton-Dickinson Corp, New Jersey, USA) containing EDTA as the anti-coagulant and were immediately placed on wet ice pending centrifugation for plasma. Centrifugation began within 1 hour of collection. All samples were placed into 96-well tubes and maintained on dry ice prior to storage at approximately −70° C.
(§4) An LC/MS/MS method was used to measure the concentration of test compounds in plasma.
(§5) Non-compartmental pharmacokinetic analysis was performed on the plasma concentration-time data.

HIV-IIIb = test: Test A: Antiviral Assay in MT4 Cells; assay type: cell-based, HIV-1
Procedure: 1 mL Aliquots of MT4 cells were pre-infected for 3 hours at 37° C. with 25 μL of cell growth medium (mock-infected) or a fresh 1:250 dilution of an HIV-IIIb concentrated ABI stock (0.004 m.o.i.). Infected and uninfected cells were diluted in cell growth media and 35 μL (2000 cells) was added to each well of the assay plates.
Assay plates were then maintained in a humidified, 5% CO2 incubator at 37° C. After 5 days of incubation, 25 μl of 2× concentrated CellTiter-Glo™ Reagent (catalog #G7573, Promega Biosciences, Inc., Madison, Wis.) was added to each well of the assay plate. Cell lysis was carried out by incubating at room temperature for 10 minutes and then chemiluminescence was read using an Envision plate reader (PerkinElmer).

Human Liver Hepatocytes = test: Test D: Metabolic Stability in Cultured Human Liver Hepatocytes; assay type: in vitro ADME; settings: pooled cryopreserved hepatocytes, […] radiolabelled compound, 0-6 hours; calculated from stability data
Procedure: Test D. Metabolic Stability in Cultured Human Liver Hepatocytes
The final hepatocyte concentration was 1 million cells/mL. The hepatocyte/compound reaction mixture was dissolved in InVitroGRO™ KHB buffer (catalog #Z99074, BioreclamationIVT, Inc., Baltimore, Md.) at pH 7.4. The incubations were performed in duplicate. A cell free control and a positive control were included in the incubations. The incubations were carried out with gentle shaking in a 37° C. incubator under a humid atmosphere of 95% air/5% CO2 (v/v). Aliquots (100 mL) were removed after 0, 1, 3, and 6 hours and added to 200 mL quenching solution that comprised 0.1% (v/v) TFA in 5% water/95% acetonitrile (v/v). The samples were placed on a shaker for 10 min, followed by centrifugation at 3000 g for 30 min. The samples of the supernatant were analyzed on a Dionex HPLC/PerkinElmer Flow Scintillation Analyzer as described below.
The column was a Phenomenex Synergi fusion RP (150×4.6 mm, 4 mm) maintained at 32 degrees Celsius. Mobile Phase A consisted of 0.1% (v/v) TFA in 99% water/1% acetonitrile (v/v). Mobile Phase B consisted of 0.1% (v/v) TFA in 5% water/95% acetonitrile (v/v). […]
Metabolic stability was determined by measuring the change in relative abundance of metabolites and parent over time and calculating from it the rate of disappearance of the parent compound. […]

[2] = Test B: Cytotoxicity Assay; settings: human
Procedure: Compound cytotoxicity and the corresponding CC50 values was determined using the same protocol as described in the antiviral assay (Test A) except that uninfected cells were used.

[3] = Test C: Pharmacokinetic analysis following intravenous administration to Sprague-Dawley rats; assay type: in vivo; settings: for clearance: read-out: Rat CL (converted); for AUC(0-inf): t = 0 to infinity, read-out: Rat AUCinf; for Cmax: maximum plasma concentration
Source text: as §1
All IV formulations were in solution.
(§6) Each rat IV dosing group consisted of 3 male SD rats. […] The animals were fasted overnight prior to dose administration and up to 4 hr after dosing. Each dog IV dosing group consisted of 3 male, naïve beagle dogs. At dosing, the animals weighed ˜10-12 kg. The animals were fasted overnight prior to dose administration and up to 2 hr after dosing.
as §2, §3, §4, §5

[4] = Test C: Pharmacokinetic analysis following intravenous administration to beagle dogs; assay type: in vivo
Source text: as §1
All IV formulations were in solution.
as §6, §2, §3, §4, §5

[5] = plasma, IV infusion over 30 minutes
[6] = male, Sprague-Dawley, rat, plasma, iv, 1 mg/kg
[7] = male, Sprague-Dawley, rat, plasma, IV infusion over 30 minutes, 1 mg/kg
[8] = male, Sprague-Dawley, rat, IV infusion over 30 minutes, 1 mg/kg
[9] = Human immunodeficiency virus 1, IIIB, MT4, 120 h

CC(C)(C#Cc1ccc(-c2ccc(Cl)c3c(NS(C)(=O)=O)nn(CC(F)(F)F)c23)c([C@H](Cc2cc(F)cc(F)c2)NC(=O)Cn2nc(C(F)(F)F)c3c2C(F)(F)[C@@H]2C[C@H]32)n1)S(C)(=O)=O [Compound 24, N—((S)-1-(3-(4-chloro-3-(methylsulfonamido)-1-(2,2,2-trifluoroethyl)-1H-indazol-7-yl)-6-(3-methyl-3-(methylsulfonyl)but-1-yn-1-yl)pyridin-2-yl)-2-(3,5-difluorophenyl)ethyl)-2-((3bS,4aR)-5,5-difluoro-3-(trifluoromethyl)-3b,4,4a,5-tetrahydro-1H-cyclopropa[3,4]cyclopenta[1,2-c]pyrazol-1-yl)acetamide]
AUC(0-inf) [1, 5]: 4.5 µM·h
Cmax ([1]; IV infusion over 30 minutes): 1300 nM
EC50 (HIV-IIIb; Human immunodeficiency virus 1, 120 h, MT4 cells infected with HIV-IIIb, 5 days incubation, CellTiter-Glo, read-out: EC50): 0.185 nM
Predicted Human Hepatic Clearance (Human Liver Hepatocytes): 0.17 mL/min/kg
CC50 at 5 days ([2]; uninfected MT4 cells): 30100 nM
clearance [3, 6]: 0.833 mL/min/kg
AUC(0-inf) [3, 7]: 19 µM·h
Cmax [3, 8]: 1800 nM

CC(C)(C#Cc1ccc(-c2ccc(Cl)c3c(NS(=O)(=O)C4CC4)nn(CC(F)F)c23)c([C@H](Cc2cc(F)cc(F)c2)NC(=O)Cn2nc(C(F)F)c3c2C(F)(F)[C@@H]2C[C@H]32)n1)S(C)(=O)=O [Compound 38, N—((S)-1-(3-(4-chloro-3-(cyclopropanesulfonamido)-1-(2,2-difluoroethyl)-1H-indazol-7-yl)-6-(3-methyl-3-(methylsulfonyl)but-1-yn-1-yl)pyridin-2-yl)-2-(3,5-difluorophenyl)ethyl)-2-((3bS,4aR)-3-(difluoromethyl)-5,5-difluoro-3b,4,4a,5-tetrahydro-1H-cyclopropa[3,4]cyclopenta[1,2-c]pyrazol-1-yl)acetamide]
in vivo clearance and terminal half-life in dog compared to compounds A and B ([4]; compared to compounds A and B): similar
clearance ([4]; male, beagle, dog, plasma, iv, 1 mg/kg, read-out: Dog CL (converted)): 5.5 mL/min/kg
half-life ([4]; male, beagle, dog, plasma, iv, 1 mg/kg, read-out: Dog t1/2 (converted)): 7 h
AUC(0-inf) ([4]; male, beagle, dog, plasma, IV infusion over 30 minutes, 1 mg/kg, t = 0 to infinity, read-out: Dog AUCinf): 3.3 µM·h
Vd ([4]; male, beagle, dog, plasma, IV infusion over 30 minutes, 1 mg/kg, volume of distribution at steady state, read-out: Dog Vss): 1.77 L/kg
Cmax ([4]; male, beagle, dog, IV infusion over 30 minutes, 1 mg/kg, maximum plasma concentration): 1600 nM
clearance ([1]; plasma, iv, read-out: Cyno CL (converted)): 3.5 mL/min/kg
half-life ([1]; plasma, iv, read-out: Cyno t1/2 (converted)): 9.5 h
AUC(0-inf) [1, 5]: 4.9 µM·h
Vd ([1]; plasma, IV infusion over 30 minutes, volume of distribution at steady state, read-out: Cyno Vss): 2.1 L/kg
Cmax ([1]; IV infusion over 30 minutes): 1300 nM
EC50 (HIV-IIIb; [9]): 0.399 nM
times more potent in HIV antiviral assay relative to compound A (HIV-IIIb; relative to compound A): about 4 times
times more potent in HIV antiviral assay relative to compound B (HIV-IIIb; relative to compound B): about 8 times
CC50 at 5 days [2]: 55200 nM
clearance [3, 6]: 1.33 mL/min/kg
half-life ([3]; male, Sprague-Dawley, rat, plasma, iv, 1 mg/kg, read-out: Rat t1/2 (converted)): 19 h
AUC(0-inf) [3, 7]: 13 µM·h
Vd ([3]; male, Sprague-Dawley, rat, plasma, IV infusion over 30 minutes, 1 mg/kg, volume of distribution at steady state, read-out: Rat Vss): 1.8 L/kg
Cmax [3, 8]: 2400 nM
times longer in vivo terminal half-life in rat relative to compound A ([3]; relative to compound A): about 9.5 times
times lower in vivo clearance in rat relative to compound A ([3]; relative to compound A): about 6.3 times
times longer in vivo terminal half-life in rat relative to compound B ([3]; relative to compound B): about 6.3 times
times lower in vivo clearance in rat relative to compound B ([3]; relative to compound B): about 5.4 times

Cn1nc(NS(C)(=O)=O)c2c(Cl)ccc(-c3ccc(C#CC(C)(C)O)nc3[C@H](Cc3cc(F)cc(F)c3)NC(=O)Cn3nc(C(F)(F)F)c4c3C(F)(F)[C@@H]3C[C@H]43)c21 [Compound B, reference compound]
EC50 (HIV-IIIb; [9]): 2.99 nM
